We go through nine compounds from patent US6537995B2, “Heterocyclic carboxamides” (Pfizer Inc., priority 1998, dated 2003).

What is called melting point is the temperature of the solid-liquid transition. Take `CN1CCN(c2ccccc2-c2ccc(C(=O)NCc3ccc(Cl)cc3)[nH]2)CC1.Cl`: the melting point was 80 °C (dec.).

With `CN1CCN(c2ccccc2-c2ccc(C(=O)Nc3ccc(Cl)cc3)s2)CC1.Cl`, the melting point is 149 °C (dec.). On to `COc1ccc(CNC(=O)c2ccc(-c3ccccc3N3CCN(C)CC3)s2)cc1.Cl`, for which the melting point is 140 °C (dec.). The same measure for `CN1CCN(c2ccccc2-c2ccc(C(=O)NCc3ccc(Cl)cc3)o2)CC1.Cl.O` (hydrate or solvate): 110 °C (dec.). The same measure for `CN1CCN(c2ccc(F)cc2-c2ccc(C(=O)NCc3ccc(Cl)cc3)s2)CC1.O` (hydrate or solvate): 175 to 176.5 °C. The same measure for `CN1CCN(c2ccccc2-c2ccc(C(=O)Nc3ccc(Cl)cc3)o2)CC1.Cl.O` (hydrate or solvate): 145 °C (dec.). `CN1CCN(c2ccccc2-c2ccc(C(=O)NCc3ccc(Cl)cc3)s2)CC1.Cl.O` (hydrate or solvate) came in with a melting point of 256 to 257 °C. As to `CN1CCN(c2ccccc2-c2ccc(C(=O)NCc3ccccc3)s2)CC1.Cl.O.O` (hydrate or solvate), the melting point is 145 °C (dec.). The same measure for `CN1CCN(c2ccccc2-c2ccc(C(=O)NCc3ccc(F)cc3)s2)CC1.Cl.O` (hydrate or solvate): 187 to 188 °C.
